In patent US8148373B2, “Compounds” (AstraZeneca AB, priority 2008, dated 2012):

Tests used:
[1] = biological target: T1, Adrenergic β2 (H292 cells) (Homo sapiens, UniProt P07550); experiment: Adrenergic β2 Mediated cAMP Production, single concentration 1 μM; format: cell-based; settings: NCI-H292, 1 μM compound, percentage of the maximum response generated by 1E-07M formoterol, read-out: β2 (% effect at 1 μM)
T1 construct: endogenous in cells; host or cells: H292 cells
Procedure, shortened: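 H292 cells were plated overnight, pre-treated with 300 μM rolipram for 10 min, then exposed to compound at 1 μM final (1% DMSO) for 60 min at room temperature. cAMP in the lysates was measured by AlphaScreen against a standard curve and expressed as % of the maximal response to 1E-07M formoterol.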

[2] = biological target: T2, human muscarinic acetylcholine M3 receptor (M3-ACh) (Homo sapiens, UniProt P20309); experiment: Muscarinic 3 Receptor Binding Assay, % inhibition specific binding at 1 μM; settings: 1 μM compound, % inhibition specific [3H]-NMS binding
T2 construct: expressed in transfected cells; host or cells: CHO-K1 (Chinese Hamster Ovary) cell membranes
T2 sequence (P20309 whole entry): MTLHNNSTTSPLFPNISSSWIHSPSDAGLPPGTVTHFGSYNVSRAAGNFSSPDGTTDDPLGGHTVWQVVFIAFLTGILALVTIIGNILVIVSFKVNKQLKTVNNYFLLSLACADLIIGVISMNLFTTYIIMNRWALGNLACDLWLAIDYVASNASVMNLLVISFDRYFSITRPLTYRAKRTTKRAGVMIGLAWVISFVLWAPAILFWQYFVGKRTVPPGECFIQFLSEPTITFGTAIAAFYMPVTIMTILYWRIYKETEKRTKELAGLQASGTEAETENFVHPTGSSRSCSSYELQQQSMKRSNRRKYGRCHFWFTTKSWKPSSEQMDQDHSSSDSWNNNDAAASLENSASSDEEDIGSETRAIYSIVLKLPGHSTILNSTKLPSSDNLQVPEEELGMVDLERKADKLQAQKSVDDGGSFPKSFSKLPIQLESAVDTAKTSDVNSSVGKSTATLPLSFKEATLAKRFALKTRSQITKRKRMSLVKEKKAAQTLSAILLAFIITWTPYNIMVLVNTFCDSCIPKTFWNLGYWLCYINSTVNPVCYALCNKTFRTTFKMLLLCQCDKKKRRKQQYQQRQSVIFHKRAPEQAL
Procedure, shortened: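 Competition binding of 0.1 nM [3H]NMS to membranes from CHO-K1 cells expressing human M3, SPA format, with compound at 1 μM in 20 mM HEPES pH 7.4, 5 mM MgCl2, 1% DMSO. Incubated 16 h at room temperature; non-specific binding defined by 1 μM atropine; value is % inhibition of specific binding.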

T1 sequence (P07550 whole entry): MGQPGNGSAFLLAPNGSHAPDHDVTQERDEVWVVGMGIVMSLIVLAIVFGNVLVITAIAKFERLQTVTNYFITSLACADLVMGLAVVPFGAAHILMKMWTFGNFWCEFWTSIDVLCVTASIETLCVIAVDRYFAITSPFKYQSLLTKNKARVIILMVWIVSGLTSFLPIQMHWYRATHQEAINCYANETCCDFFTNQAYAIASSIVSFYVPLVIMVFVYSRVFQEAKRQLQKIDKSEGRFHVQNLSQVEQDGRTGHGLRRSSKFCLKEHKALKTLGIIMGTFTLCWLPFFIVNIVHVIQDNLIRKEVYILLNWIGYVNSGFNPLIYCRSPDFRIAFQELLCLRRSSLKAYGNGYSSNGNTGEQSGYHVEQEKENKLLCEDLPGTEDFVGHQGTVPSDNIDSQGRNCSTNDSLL

Structure (SMILES) | activation at 1 µM [1] [%] | inhibition at 1 µM [2] [%]
Cc1nc(C(=O)N2CCOC3(CCN(CCOc4ccc(CNC[C@H](O)c5ccc(O)c6[nH]c(=O)sc56)cc4)CC3)C2)c(C)s1 [Example 242, (R)-7-(2-(4-(2-(4-(2,5-dimethylthiazole-4-carbonyl)-1-oxa-4,9-diazaspiro[5.5]undecan-9-yl)ethoxy)benzylamino)-1-hydroxyethyl)-4-hydroxy-benzo[d]thiazol-2(3H)-one] | 43 | 83
O=C(COCc1ccccc1)N1CCOC2(CCN(CCOc3ccc(CNC[C@H](O)c4ccc(O)c5[nH]c(=O)sc45)cc3)CC2)C1 [Example 244, (R)-7-(2-(4-(2-(4-(2-(benzyloxy)acetyl)-1-oxa-4,9-diazaspiro[5.5]undecan-9-yl)ethoxy)benzylamino)-1-hydroxyethyl)-4-hydroxy-benzo[d]thiazol-2(3H)-one] | 60 | 48
Cc1ccn(CC(=O)N2CCOC3(CCN(CCOc4ccc(CNC[C@H](O)c5ccc(O)c6[nH]c(=O)sc56)cc4)CC3)C2)n1 [Example 245, (R)-4-hydroxy-7-(1-hydroxy-2-(4-(2-(4-(2-(3-methyl-1H-pyrazol-1-yl)acetyl)-1-oxa-4,9-diazaspiro[5.5]undecan-9-yl)ethoxy)benzylamino)ethyl) benzo[d]thiazol-2(3H)-one] | 76 | 51
O=C(CCOc1ccccc1)N1CCOC2(CCN(CCOc3ccc(CNC[C@H](O)c4ccc(O)c5[nH]c(=O)sc45)cc3)CC2)C1 [Example 247, (R)-4-hydroxy-7-(1-hydroxy-2-(4-(2-(4-(3-phenoxypropanoyl)-1-oxa-4,9-diazaspiro[5.5]undecan-9-yl)ethoxy)benzylamino)ethyl) benzo[d]thiazol-2(3H)-one] | 75 | 60
Cc1cc(CC(=O)N2CCOC3(CCN(CCOc4ccc(CNC[C@H](O)c5ccc(O)c6[nH]c(=O)sc56)cc4)CC3)C2)on1 [Example 249, (R)-4-hydroxy-7-(1-hydroxy-2-(4-(2-(4-(2-(3-methylisoxazol-5-yl)acetyl)-1-oxa-4,9-diazaspiro[5.5]undecan-9-yl)ethoxy)benzylamino)ethyl) benzo[d]thiazol-2(3H)-one] | 76 | 31
O=C(c1ccc2occc2c1)N1CCOC2(CCN(CCOc3ccc(CNC[C@H](O)c4ccc(O)c5[nH]c(=O)sc45)cc3)CC2)C1 [Example 250, (R)-7-(2-(4-(2-(4-(benzofuran-5-carbonyl)-1-oxa-4,9-diazaspiro[5.5]undecan-9-yl)ethoxy)benzylamino)-1-hydroxyethyl)-4-hydroxybenzo[d]thiazol-2(3H)-one] | 77 | 91
Cc1nc(CC(=O)N2CCOC3(CCN(CCOc4ccc(CNC[C@H](O)c5ccc(O)c6[nH]c(=O)sc56)cc4)CC3)C2)cs1 [Example 251, (R)-4-hydroxy-7-(1-hydroxy-2-(4-(2-(4-(2-(2-methylthiazol-4-yl)acetyl)-1-oxa-4,9-diazaspiro[5.5]undecan-9-yl)ethoxy)benzylamino)ethyl) benzo[d]thiazol-2(3H)-one] | 68 | 51
Cc1nc(C)c(CC(=O)N2CCOC3(CCN(CCOc4ccc(CNC[C@H](O)c5ccc(O)c6[nH]c(=O)sc56)cc4)CC3)C2)s1 [Example 252, (R)-7-(2-(4-(2-(4-(2-(2,4-dimethylthiazol-5-yl)acetyl)-1-oxa-4,9-diazaspiro[5.5]undecan-9-yl)ethoxy)benzylamino)-1-hydroxyethyl)-4-hydroxy-benzo[d]thiazol-2(3H)-one] | 88 | 10
O=C(c1ccsc1Cl)N1CCOC2(CCN(CCOc3ccc(CNC[C@H](O)c4ccc(O)c5[nH]c(=O)sc45)cc3)CC2)C1 [Example 253, (R)-7-(2-(4-(2-(4-(2-chlorothiophene-3-carbonyl)-1-oxa-4,9-diazaspiro[5.5]undecan-9-yl)ethoxy)benzylamino)-1-hydroxyethyl)-4-hydroxy-benzo[d]thiazol-2(3H)-one] | 73 | 35
Cc1csc(C(=O)N2CCOC3(CCN(CCOc4ccc(CNC[C@H](O)c5ccc(O)c6[nH]c(=O)sc56)cc4)CC3)C2)c1 [Example 254, (R)-4-hydroxy-7-(1-hydroxy-2-(4-(2-(4-(4-methylthiophene-2-carbonyl)-1-oxa-4,9-diazaspiro[5.5]undecan-9-yl)ethoxy)benzylamino)ethyl) benzo[d]thiazol-2(3H)-one] | 71 | 92

Next, values leading:

activation at 1 µM [1] [%] | inhibition at 1 µM [2] [%] | Structure (SMILES)
84 | 78 | Cc1cc(C(=O)N2CCOC3(CCN(CCOc4ccc(CNC[C@H](O)c5ccc(O)c6[nH]c(=O)sc56)cc4)CC3)C2)c(C)s1 [Example 243, (R)-7-(2-(4-(2-(4-(2,5-dimethylthiophene-3-carbonyl)-1-oxa-4,9-diazaspiro[5.5]undecan-9-yl)ethoxy)benzylamino)-1-hydroxyethyl)-4-hydroxy-benzo[d]thiazol-2(3H)-one]
72 | 38 | Cc1sccc1C(=O)N1CCOC2(CCN(CCOc3ccc(CNC[C@H](O)c4ccc(O)c5[nH]c(=O)sc45)cc3)CC2)C1 [Example 246, (R)-4-hydroxy-7-(1-hydroxy-2-(4-(2-(4-(2-methylthiophene-3-carbonyl)-1-oxa-4,9-diazaspiro[5.5]undecan-9-yl)ethoxy)benzylamino)ethyl) benzo[d]thiazol-2(3H)-one]
70 | 44 | O=C(CCc1cccs1)N1CCOC2(CCN(CCOc3ccc(CNC[C@H](O)c4ccc(O)c5[nH]c(=O)sc45)cc3)CC2)C1 [Example 248, (R)-4-hydroxy-7-(1-hydroxy-2-(4-(2-(4-(3-(thiophen-2-yl)propanoyl)-1-oxa-4,9-diazaspiro[5.5]undecan-9-yl)ethoxy)benzylamino)ethyl) benzo[d]thiazol-2(3H)-one]
66 | 32 | CC(C)c1cc(C(=O)N2CCOC3(CCN(CCOc4ccc(CNC[C@H](O)c5ccc(O)c6[nH]c(=O)sc56)cc4)CC3)C2)no1 [Example 255, (R)-4-hydroxy-7-(1-hydroxy-2-(4-(2-(4-(5-isopropylisoxazole-3-carbonyl)-1-oxa-4,9-diazaspiro[5.5]undecan-9-yl)ethoxy)benzylamino)ethyl) benzo[d]thiazol-2(3H)-one]
76 | 38 | Cc1nc2cc(C(=O)N3CCOC4(CCN(CCOc5ccc(CNC[C@H](O)c6ccc(O)c7[nH]c(=O)sc67)cc5)CC4)C3)ccc2s1 [Example 256, (R)-4-hydroxy-7-(1-hydroxy-2-(4-(2-(4-(2-methylbenzo[d]thiazole-5-carbonyl)-1-oxa-4,9-diazaspiro[5.5]undecan-9-yl)ethoxy)benzylamino)ethyl) benzo[d]thiazol-2(3H)-one]
56 | 36 | CC(C)(C)c1nc(C(=O)N2CCOC3(CCN(CCOc4ccc(CNC[C@H](O)c5ccc(O)c6[nH]c(=O)sc56)cc4)CC3)C2)cs1 [Example 257, (R)-7-(2-(4-(2-(4-(2-tert-butylthiazole-4-carbonyl)-1-oxa-4,9-diazaspiro[5.5]undecan-9-yl)ethoxy)benzylamino)-1-hydroxyethyl)-4-hydroxy-benzo[d]thiazol-2(3H)-one]
